Patent US7294637B2 (Sepracor, Inc., priority 2000, dated 2007)
Where two headings read alike, the source gives them in different places.

Experiments:
DAT = DAT (Homo sapiens, UniProt Q01959); assay: cell-based; set-up: expressed in transfected cells; conditions: hDAT cell line; read-out: DA Uptake, Functional Assays (antagonism, EC50)
rat = assay: Acute toxicity assessment, maximum tolerated dose i.v., rat; assay type: in vivo; conditions: rats
Protocol: (§1) An in vivo evaluation was carried out to determine the maximum tolerated dose of numerous test compounds in two animal species (mouse and rat). The compounds were administered i.v. and the animals were then observed for 72 h. Compounds 114, 115, 113, 110, 124, 125, 129, and 130 were solubilized in 5% dextrose (w/v)/polyethylene glycol 400 (4:1 v/v). Compounds 126, 127, 131, and 132 were solubilized in 10% hydroxypropyl-β-cyclodextrin (w/v).

[1] = biological target: T1, norepinephrine transporter (Homo sapiens, UniProt P23975); assay: NE uptake: displacement of norephinephrine ligands in vitro (methods of Galli et al.); assay type: binding; conditions: NE Uptake, Uptake Profile (IC50, nM)
rats [2] = assay type: in vivo, rat
Protocol: The animals were preconditioned in a pretest session, where the rats were individually forced to swim inside a vertical plexiglass cylinder containing water maintained at 19-20° C. […] Twenty four hours later, the compounds were administered intraperitoneal to the animals. One hour after administration of the test compound, animals were put back into the cylinder containing water. The total duration of immobility was measured during the last 4 minutes of a 6 minute test.
(§2) The results are expressed as the percentage of variation of the total duration of immobility calculated from the mean value of the vehicle-treated group (% variation=[(immobility duration of vehicle-immobility duration of test compound)/(immobility duration of vehicle)]×100%).

Sprague-Dawley rats [3] = assay: Spontaneous locomotor activity in rats, 1-24 hours (Example 223); assay type: in vivo, rat; conditions: 10 mg/kg i.p.
Protocol: The effect of 124 and 126 on spontaneous locomotor activity in rats was determined according to the procedures outlined by Silverman et al. (Motor Activity. In “Animal behavior in the laboratory”, Chapman and Hall eds, London, p. 79-92, 1978) and Boissier et al. (Arch. Int. Pharmacodyn. 1965, 158, 212. ) Test items and test item vehicles were administered to male Sprague-Dawley rats (n=10) as a single i.p. dose. One, three, five, eight and twenty four hours following administration, rats were placed in a plastic box 30×30 cm in a room with low light intensity (maximum 50 lux). Locomotor activity was determined during 20 minute periods using video image analyzers. Images recorded with video cameras were digitalized and displacements of the center of gravity of the digital image spot were tracked and analyzed. When the speed of displacement of the center of gravity of the spot was below 4.26 cm/sec, the movement was considered as inactivity. When this speed was between 4.26 and 6.75 cm/sec, the movement was considered as a small movement. When this speed was above 6.75 cm/sec, the movement was considered as a large movement. The number of occurrences, distance and duration of fast and slow movements, number of occurrences and duration of periods of inactivity and number of rears were measured.

Sprague-Dawley rats [4] = assay: Spontaneous locomotor activity in rats (Example 141); assay type: in vivo, rat
Protocol: The effect of 124 and 126 on spontaneous locomotor activity in rats was determined according to the procedures outlined by Silverman et al. (Motor Activity. In “Animal behavior in the laboratory”, Chapman and Hall eds, London, p. 79-92, 1978) and Boissier et al. (Arch. Int. Pharmacodyn. 1965, 158, 212. )
Test items and test item vehicles were administered to male Sprague-Dawley rats (n=10) as a single i.p. dose (vehicle A=10% hydroxypropyl-β-cyclodextrin in water; vehicle B=4:1 5% aqueous dextrose:PEG 400). […] Locomotor activity was determined during 20 minute periods using video image analyzers. Images recorded with video cameras were digitalized and displacements of the center of gravity of the digital image spot were tracked and analyzed. When the speed of displacement of the center of gravity of the spot was below 4.26 cm/sec, the movement was considered as inactivity. When this speed was between 4.26 and 6.75 cm/sec, the movement was considered as a small movement. When this speed was above 6.75 cm/sec, the movement was considered as a large movement. The number of occurrences, distance and duration of fast and slow movements, number of occurrences and duration of periods of inactivity and number of rears were measured.

dopamine transporter = dopamine transporter (Homo sapiens, UniProt Q01959); assay: DA uptake: displacement of dopamine ligands in vitro (methods of Gu et al.); conditions: DA Uptake, Uptake Profile (IC50, nM), displacement of dopamine ligands in vitro
rats [5] = assay: Behavioral despair assay in rats, 3 i.p. injections (Example 143); assay type: in vivo, rat; conditions: for % variation of the total duration of immobility: 3 i.p. injections 24 h, 5 h and 1 h before test
Text: The objective of this study was to assess the antidepressant effects of test compounds 124, 125, 126, and 127 in the behavioral despair assay in rats according to the methods described by Porsolt R. D., Anton G., Blavet N., Jalfre M., Behavioural despair in rats: a new model sensitive to antidepressant treatment, Eur. J. Pharmacol., 1978, 47, 379-391. The animals were preconditioned in a pretest session, where the rats were individually forced to swim inside a vertical plexiglass cylinder containing water maintained at 19-20° C. After 15 minutes in the water, they were allowed to dry for 15 minutes in a heated enclosure. Twenty four hours later, they were replaced in the cylinder and the total duration of immobility was measured during a 5 minute test (test session). The test compounds and vehicle were administered as a series of 3 intraperitoneal injections 24 h, 5 h and 1 h before the 5 minute test on the second day.
as §2

serotonin transporter [6] = biological target: T2, serotonin transporter (Homo sapiens, UniProt P31645); assay: 5-HT uptake: displacement of serotonin ligands in vitro (methods of Gu et al.); assay type: binding; conditions: displacement of serotonin ligands in vitro; read-out: 5-HT Uptake, Uptake Profile (IC50)
mouse = assay: Acute toxicity assessment, maximum tolerated dose i.v., mouse; assay type: in vivo; conditions: mice
Protocol: as §1

serotonin transporter [7] = biological target: T2, serotonin transporter; assay: Functional activity, serotonin uptake inhibition in human HEK-293 cell lines; assay type: cell-based; set-up: expressed in transfected cells; host or cells: HEK-293; conditions: human HEK-293 cell lines; read-out: 5-HT Uptake, Functional Assays (antagonism, EC50)
[8] = biological target: T1, norepinephrine transporter; assay: Functional activity, norephinephrine uptake inhibition in MDCK cell lines; assay type: cell-based
[9] = 2.5 mg/kg i.p., 1 h before test

T1 sequence (P23975 whole entry): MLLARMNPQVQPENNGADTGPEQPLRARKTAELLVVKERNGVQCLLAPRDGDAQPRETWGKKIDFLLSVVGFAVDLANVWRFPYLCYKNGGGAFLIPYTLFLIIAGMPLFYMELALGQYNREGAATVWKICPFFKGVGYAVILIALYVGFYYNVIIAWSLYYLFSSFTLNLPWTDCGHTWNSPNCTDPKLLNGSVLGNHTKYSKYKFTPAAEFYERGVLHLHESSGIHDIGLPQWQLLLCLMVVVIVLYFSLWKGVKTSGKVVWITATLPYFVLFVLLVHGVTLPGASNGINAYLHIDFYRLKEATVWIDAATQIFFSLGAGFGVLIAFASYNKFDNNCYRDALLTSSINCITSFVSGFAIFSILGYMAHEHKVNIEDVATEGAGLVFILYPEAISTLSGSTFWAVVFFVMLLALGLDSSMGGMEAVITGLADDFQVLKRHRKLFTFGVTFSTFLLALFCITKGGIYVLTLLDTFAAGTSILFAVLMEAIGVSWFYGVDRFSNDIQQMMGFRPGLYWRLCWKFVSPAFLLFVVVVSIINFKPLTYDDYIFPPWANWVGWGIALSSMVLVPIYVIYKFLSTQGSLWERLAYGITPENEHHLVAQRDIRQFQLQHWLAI
Chain of dopamine transporter (Q01959 whole entry): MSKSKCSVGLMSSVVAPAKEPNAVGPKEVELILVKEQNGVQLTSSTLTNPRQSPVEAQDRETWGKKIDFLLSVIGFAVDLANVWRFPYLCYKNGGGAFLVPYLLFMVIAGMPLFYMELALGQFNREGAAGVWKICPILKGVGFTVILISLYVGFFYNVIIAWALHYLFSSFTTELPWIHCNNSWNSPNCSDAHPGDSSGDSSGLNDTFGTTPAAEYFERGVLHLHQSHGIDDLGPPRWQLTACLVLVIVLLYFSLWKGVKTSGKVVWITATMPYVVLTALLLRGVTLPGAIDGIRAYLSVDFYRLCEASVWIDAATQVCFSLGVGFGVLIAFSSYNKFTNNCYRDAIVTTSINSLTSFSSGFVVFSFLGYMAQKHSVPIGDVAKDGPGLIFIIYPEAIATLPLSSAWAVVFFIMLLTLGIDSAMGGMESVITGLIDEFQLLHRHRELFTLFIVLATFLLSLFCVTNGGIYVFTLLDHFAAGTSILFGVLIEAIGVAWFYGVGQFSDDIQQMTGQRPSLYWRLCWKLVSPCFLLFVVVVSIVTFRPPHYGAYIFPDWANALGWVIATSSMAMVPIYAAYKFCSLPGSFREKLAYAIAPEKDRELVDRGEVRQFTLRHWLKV
Chain of DAT (Q01959 whole entry): as above
T2 sequence (P31645 whole entry): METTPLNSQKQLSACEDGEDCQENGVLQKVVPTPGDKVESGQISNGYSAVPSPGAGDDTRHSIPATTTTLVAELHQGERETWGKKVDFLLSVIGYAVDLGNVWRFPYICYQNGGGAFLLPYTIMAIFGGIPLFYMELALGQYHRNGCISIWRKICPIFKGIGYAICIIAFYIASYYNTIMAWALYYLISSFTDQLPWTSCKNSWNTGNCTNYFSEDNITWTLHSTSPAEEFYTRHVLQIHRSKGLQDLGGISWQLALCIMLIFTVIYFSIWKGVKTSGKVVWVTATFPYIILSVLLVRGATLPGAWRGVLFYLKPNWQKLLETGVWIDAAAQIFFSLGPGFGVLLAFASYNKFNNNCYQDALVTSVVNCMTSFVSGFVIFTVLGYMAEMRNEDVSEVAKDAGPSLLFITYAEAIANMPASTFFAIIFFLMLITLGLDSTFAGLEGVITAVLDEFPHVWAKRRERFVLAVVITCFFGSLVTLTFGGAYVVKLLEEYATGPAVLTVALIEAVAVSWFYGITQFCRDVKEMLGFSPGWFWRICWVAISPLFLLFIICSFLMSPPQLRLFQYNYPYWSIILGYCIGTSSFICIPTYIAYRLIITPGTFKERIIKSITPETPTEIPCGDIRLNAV

Q: What does the source list for `O[C@H](CN1CCC[C@H](COc2ccc(C(F)(F)F)cc2)C1)C1(c2ccc(Cl)cc2)CCC1` [compound 124, 1S-1-[1-(4-Chloro-phenyl)-cyclobutyl]-2-[(3S)-3-(4-trifluoromethyl-phenoxymethyl)-piperidin-1-yl]-ethanol]?
A: EC50 (DAT): < 10 nM; tolerability and mortality after 72 h (rat; 10 mg/kg i.v.): well tolerated; IC50 [1]: < 100 nM; % variation of the total duration of immobility (rats [2]; [9]): 6%; % variation of the total duration of immobility (rats [2]; 10 mg/kg i.p., 1 h before test): 91%; Large Movement Occurrences (Sprague-Dawley rats [3]; 1 hour): 655 ± 83; Small Movement Occurrences (Sprague-Dawley rats [3]; 1 hour): 1258 ± 83; Large Movement Occurrences (Sprague-Dawley rats [3]; 3 hours): 751 ± 122; Small Movement Occurrences (Sprague-Dawley rats [3]; 3 hours): 1386 ± 96; Large Movement Occurrences (Sprague-Dawley rats [3]; 5 hours): 616 ± 82; Small Movement Occurrences (Sprague-Dawley rats [3]; 5 hours): 1277 ± 100; Large Movement Occurrences (Sprague-Dawley rats [3]; 8 hours): 455 ± 69; Small Movement Occurrences (Sprague-Dawley rats [3]; 8 hours): 1042 ± 109; Large Movement Occurrences (Sprague-Dawley rats [3]; 24 hours): 440 ± 55; Small Movement Occurrences (Sprague-Dawley rats [3]; 24 hours): 934 ± 87; locomotor activity compared to control animals (Sprague-Dawley rats [3]; at all times tested (1, 3, 5, 8, 24 hours)): significant increase; Small Movement Occurrences (Sprague-Dawley rats [4]; 5 mg/kg i.p.): 484.5 ± 114.1; Large Movement Occurrences (Sprague-Dawley rats [4]; 5 mg/kg i.p., 20 min): 228.7 ± 22.5 ^; Small Movement Occurrences (Sprague-Dawley rats [4]; 5 mg/kg i.p., 20 min): 589.2 ± 50.4 ^; Large Movement Occurrences (Sprague-Dawley rats [4]; 5 mg/kg i.p., 60 min): 74.3 ± 14.8; Small Movement Occurrences (Sprague-Dawley rats [4]; 5 mg/kg i.p., 60 min): 232.8 ± 33.6 ^; Large Movement Occurrences (Sprague-Dawley rats [4]; 5 mg/kg i.p., 120 min): 168.5 ± 61.5 ^; Small Movement Occurrences (Sprague-Dawley rats [4]; 5 mg/kg i.p., 120 min): 443.1 ± 100.6; Large Movement Occurrences (Sprague-Dawley rats [4]; 5 mg/kg i.p., 180 min): 212.5 ± 65.1 ^; Large Movement Occurrences (Sprague-Dawley rats [4]; 10 mg/kg i.p., 20 min): 391.5 ± 63.3; Small Movement Occurrences (Sprague-Dawley rats [4]; 10 mg/kg i.p., 20 min): 919.6 ± 96.4; Large Movement Occurrences (Sprague-Dawley rats [4]; 10 mg/kg i.p., 60 min): 427.6 ± 95.8; Small Movement Occurrences (Sprague-Dawley rats [4]; 10 mg/kg i.p., 60 min): 965.2 ± 153.9; Large Movement Occurrences (Sprague-Dawley rats [4]; 10 mg/kg i.p., 120 min): 603.5 ± 97.4; Small Movement Occurrences (Sprague-Dawley rats [4]; 10 mg/kg i.p., 120 min): 1201.4 ± 160.9; locomotor activity compared to control animals (Sprague-Dawley rats [4]; dosed at 5 and 10 mg/kg i.p.): significant increase; IC50 (dopamine transporter): < 10 nM; % variation of the total duration of immobility (rats [5]; 1.0 mg/kg): 29%; % variation of the total duration of immobility (rats [5]; 2.0 mg/kg): 71%; effectiveness (statistically significant variation >30%) (rats [5]; 2.5 mg/kg): effective; % variation of the total duration of immobility (rats [5]; 2.5 mg/kg): 59%; IC50 (serotonin transporter [6]): < 1000 nM; tolerability and mortality after 72 h (mouse; 10 mg/kg i.v.): well tolerated; EC50 (serotonin transporter [7]): < 1000 nM; EC50 [8]: < 1000 nM

Q: For `O[C@@H](CN1CCC[C@H](COc2ccc(C(F)(F)F)cc2)C1)C1(c2ccc(Cl)cc2)CCC1` [compound 125, 1R-1-[1-(4-Chloro-phenyl)-cyclobutyl]-2-[(3S)-3-(4-trifluoromethyl-phenoxymethyl)-piperidin-1-yl]-ethanol], which EC50 (DAT) is on record?
A: < 10 nM

Q: And the “tolerability and mortality after 72 h” value (rat; 30 mg/kg i.v.)?
A: well tolerated

Q: And the IC50 [1]?
A: < 100 nM

Q: What about the “% variation of the total duration of immobility” value (shortened to “% variation”) (rats [2]; 10 mg/kg i.p., 1 h before test) of the same molecule?
A: 55%

Q: What about the IC50 (dopamine transporter) of the same molecule?
A: < 10 nM

Q: And the “% variation” value (rats [5]; 2.5 mg/kg)?
A: 12%

Q: What about the IC50 (serotonin transporter [6]) of the same molecule?
A: < 1000 nM

Q: And the “tolerability and mortality after 72 h” value (mouse; 30 mg/kg i.v.)?
A: well tolerated

Q: What about the EC50 (serotonin transporter [7]) of the same molecule?
A: < 1000 nM

Q: What about the EC50 [8] of the same molecule?
A: < 1000 nM

Q: What does the source list for `O[C@@H](CN1CCC[C@@H](COc2ccc(C(F)(F)F)cc2)C1)C1(c2ccc(Cl)cc2)CCC1` [compound 127, 1S-1-[1-(4-Chloro-phenyl)-cyclobutyl]-2-[(3R)-3-(4-trifluoromethyl-phenoxymethyl)-piperidin-1-yl]-ethanol]?
A: EC50 (DAT): < 10 nM; tolerability and mortality after 72 h (rat; 30 mg/kg i.v.): well tolerated; IC50 [1]: < 100 nM; % variation of the total duration of immobility (rats [2]; [9]): 25%; % variation of the total duration of immobility (rats [2]; 10 mg/kg i.p., 1 h before test): 67%; IC50 (dopamine transporter): < 10 nM; % variation of the total duration of immobility (rats [5]; 1.0 mg/kg): 14%; % variation of the total duration of immobility (rats [5]; 2.0 mg/kg): 39%; effectiveness (statistically significant variation >30%) (rats [5]; 2.5 mg/kg): effective; % variation of the total duration of immobility (rats [5]; 2.5 mg/kg): 39%; % variation of the total duration of immobility (rats [5]; 3.0 mg/kg): 64%; IC50 (serotonin transporter [6]): > 1000 nM; tolerability and mortality after 72 h (mouse; 30 mg/kg i.v.): well tolerated; EC50 (serotonin transporter [7]): > 1000 nM; EC50 [8]: < 1000 nM

Q: How did the EC50 (DAT) turn out when `FC(F)(F)c1ccc(COC[C@H]2CCCN(CC3(c4ccc(Cl)cc4)CCC3)C2)cc1` [compound 129, S-1-[1-(4-Chloro-phenyl)-cyclobutylmethyl]-3-(4-trifluoromethyl-benzyloxymethyl)-piperidine] was run?
A: < 10 nM

Q: And the “tolerability and mortality after 72 h” value (rat; 30 mg/kg i.v.)?
A: well tolerated

Q: And the IC50 [1]?
A: < 100 nM

Q: What about the IC50 (dopamine transporter) of the same molecule?
A: < 10 nM

Q: And the IC50 (serotonin transporter [6])?
A: > 1000 nM

Q: What about the “tolerability after 72 h” value (mouse; 20 mg/kg i.v.) of the same molecule?
A: well tolerated

Q: What about the EC50 (serotonin transporter [7]) of the same molecule?
A: < 100 nM

Q: And the EC50 [8]?
A: < 100 nM

Q: How did the EC50 (DAT) turn out when `FC(F)(F)c1ccc(COC[C@@H]2CCCN(CC3(c4ccc(Cl)cc4)CCC3)C2)cc1` [compound 130, R-1-[1-(4-Chloro-phenyl)-cyclobutylmethyl]-3-(4-trifluoromethyl-benzyloxymethyl)-piperidine] was run?
A: < 10 nM

Q: And the “tolerability and mortality after 72 h” value (rat; 30 mg/kg i.v.)?
A: well tolerated

Q: And the IC50 [1]?
A: < 1000 nM

Q: And the IC50 (dopamine transporter)?
A: < 100 nM

Q: And the IC50 (serotonin transporter [6])?
A: < 1000 nM

Q: What about the “tolerability and mortality after 72 h” value (mouse; 30 mg/kg i.v.) of the same molecule?
A: well tolerated

Q: What about the EC50 (serotonin transporter [7]) of the same molecule?
A: > 1000 nM

Q: What about the EC50 [8] of the same molecule?
A: < 100 nM

Q: Which “% variation” value (rats [2]; rat, in vivo) does the source give for `CN1Cc2c(N)cccc2C(c2ccccc2)C1` (stereo not shown) [nomifensine, reference compound] here?
A: 78%
